Data from publication PMC4486022 (Cell reports, 2014).

Assays:
[1] = biological target: T1, yIre1 (recombinant yeast IRE1) (Saccharomyces cerevisiae, UniProt P32361); assay: in vitro RNase assay, HAC1 and BLOS1 RNA cleavage; assay type: biochemical; details: activator, 100 μM, 1 μM yIre1; Q site at kinase/RNase interface
T1 sequence (P32361 641-1115 limits assumed): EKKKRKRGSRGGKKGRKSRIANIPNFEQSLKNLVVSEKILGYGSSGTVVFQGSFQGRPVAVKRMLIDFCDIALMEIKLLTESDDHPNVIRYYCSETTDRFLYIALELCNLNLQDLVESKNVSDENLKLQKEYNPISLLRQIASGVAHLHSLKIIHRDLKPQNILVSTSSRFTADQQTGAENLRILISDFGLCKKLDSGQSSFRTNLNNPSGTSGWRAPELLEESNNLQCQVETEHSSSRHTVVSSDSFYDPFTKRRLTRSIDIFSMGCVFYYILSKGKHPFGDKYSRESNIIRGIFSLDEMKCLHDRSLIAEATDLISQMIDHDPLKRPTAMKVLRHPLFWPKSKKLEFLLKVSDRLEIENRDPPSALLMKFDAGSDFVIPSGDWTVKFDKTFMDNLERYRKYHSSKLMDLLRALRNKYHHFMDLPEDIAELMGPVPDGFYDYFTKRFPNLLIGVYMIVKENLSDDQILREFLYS

[2] = biological target: T1, yIre1 (recombinant yeast IRE1); assay: in vitro RNase assay, radiolabeled HAC1 RNA cleavage; assay type: biochemical

Row | Compound | in vitro RNase assay, HAC1 and BLOS1 RNA cleavage (activation) [1] | IC50 [2] [µM]
1 | O=c1c(O)c(-c2ccc(O)c(O)c2)oc2cc(O)cc(O)c12 [quercetin] | binding of Q to Ire1 was sufficient to promote cleavage of RIDD substrate RNA | 
2 | O=S(=O)(N=Cc1c(O)ccc2ccccc12)c1cccs1 [STF-083010] |  | ~30
